Key:
Format in all cases: in vivo
barnyardgrass (Ec) = experiment: Test Example 3: herbicidal effects by upland field foliage treatment; parameters: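 grade of growth control; 5 = at least 90%; 4 = 70 to 90%; 3 = 50 to 70%; 2 = 30 to 50%; 1 = 10 to 30%; 0 = under 10%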
Method in brief: (§1)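 Pot culture: sand, 120 cm^2 surface; seeds sown, soil-covered, greenhouse 2 weeks. Foliage treatment applied at that stage. Herbicidal effect rated by standard scale, day 14 post-treatment.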

pale smartweed (Po) [1] = experiment: as above; parameters: scale not given here
Method in brief: as §1

rice flatsedge (Ci) = experiment: as above; parameters: scale not given here
Method in brief: as §1

[2] = system: common lambsquarters (Ch); experiment: as above; parameters: scale not given here
Method in brief: as §1

slender amaranth (Am) [3] = experiment: as above; parameters: scale not given here
Method in brief: as §1

Diaitaria ciliaris (Di) = experiment: as above; parameters: scale not given here
Method in brief: as §1

Digitaria ciliaris (Di) = experiment: Test Example 2: herbicidal effects by upland field soil treatment; conditions: 100 g of the active ingredient per 10 ares;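 further: grade of growth control; 5 = at least 90%; 4 = 70 to 90%; 3 = 50 to 70%; 2 = 30 to 50%; 1 = 10 to 30%; 0 = under 10%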
Description: (§2) (Test on Herbicidal Effects by Upland Field Soil Treatment)

slender amaranth (Am) [4] = experiment: as above; conditions: 100 g of the active ingredient per 10 ares
Description: as §2

pale smartweed (Po) [5] = experiment: Test Example 6: crop plant selectivity by upland field soil treatment (soybean), herbicidal effects; parameters: scale not given here; conditions: 21st day after application
Method in brief: (§3)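 Scoring took place 21 days after treatment using a set grading standard, covering both weed control and soybean injury. Seeds of soybean and weed species went into sand-filled pots under a soil cover before soil treatment and greenhouse culture.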

slender amaranth (Am) [6] = experiment: as above; parameters: scale not given here; conditions: 21st day after application
Method in brief: as §3

[7] = 100 g active ingredient per 10 ares, evaluated 14th day after treatment
[8] = evaluated on the 21st day after application
[9] = 100 g of the active ingredient per 10 ares, evaluated on the 14th day after treatment
[10] = 21st day after the application, index 0-5 of Table 47

Compound	Herbicidal effects Ec (barnyardgrass (Ec); [7])	Herbicidal effects Po (pale smartweed (Po) [1]; [7])	Herbicidal effects Ci (rice flatsedge (Ci); [7])	Herbicidal effects Ch [2, 7]	Herbicidal effects Am (slender amaranth (Am) [3]; [7])	Herbicidal effects Di (Diaitaria ciliaris (Di); [7])	Herbicidal effects Di (Digitaria ciliaris (Di); [8])	Herbicidal effects Am (slender amaranth (Am) [4]; [8])	Herbicidal effects Po (pale smartweed (Po) [5]; dose 1.6 g ai/10a)	Herbicidal effects Am (slender amaranth (Am) [6]; dose 1.6 g ai/10a)	Herbicidal effects Ec (barnyardgrass (Ec); [9])	Herbicidal effects Po (pale smartweed (Po) [1]; [9])	Herbicidal effects Ci (rice flatsedge (Ci); [9])	Herbicidal effects Ch [2, 9]	Herbicidal effects Am (slender amaranth (Am) [3]; [9])	Herbicidal effects Di (Diaitaria ciliaris (Di); [9])	Herbicidal effects Di (Digitaria ciliaris (Di); [10])	Herbicidal effects Am (slender amaranth (Am) [4]; [10])	Herbicidal effects Po (pale smartweed (Po) [5]; dose 6.3 g ai/10a)	Herbicidal effects Am (slender amaranth (Am) [6]; dose 6.3 g ai/10a)
C#CC(C)Oc1cc(-c2cn(C)c(C(F)(F)F)cc2=O)c(F)cc1Cl (racemic) [Compound 6-10]	5	5	5	5	5	5	5	5	5	5	–	–	–	–	–	–	–	–	–	–
COc1cc(-c2ccc(C(F)(F)F)n(C)c2=O)c(F)cc1Cl [1-15]	–	–	–	–	–	–	–	–	5	5	5	5	5	5	5	5	5	5	–	–
C=CCOc1cc(-c2ccc(C(F)(F)F)n(C)c2=O)c(F)cc1Cl [1-16]	–	–	–	–	–	–	–	–	5	5	5	5	5	5	5	5	5	5	–	–
C#CC(C)Oc1cc(-c2ccc(C(F)(F)F)n(C)c2=O)c(F)cc1Cl (stereo not shown) [1-17]	–	–	–	–	–	–	–	–	5	5	5	5	5	5	5	5	5	5	–	–
C#CCOc1cc(-c2ccc(C(F)(F)F)n(C)c2=O)c(F)cc1Cl [1-18]	–	–	–	–	–	–	–	–	5	5	5	5	5	5	5	5	5	5	–	–
Cn1c(C(F)(F)F)ccc(-c2cc(OCC#N)c(Cl)cc2F)c1=O [1-25]	–	–	–	–	–	–	–	–	–	–	5	5	5	5	5	5	5	5	5	5
C#CCOc1cc(-c2ccc(C(F)(F)F)n(C)c2=O)c(Cl)cc1Cl [1-30]	–	–	–	–	–	–	–	–	5	5	5	5	5	5	5	5	5	5	–	–
CC(C)Sc1cc(-c2ccc(C(F)(F)F)n(C)c2=O)c(F)cc1Cl [1-43]	–	–	–	–	–	–	–	–	–	–	5	5	5	5	5	5	5	5	5	5
C#CCSc1cc(-c2ccc(C(F)(F)F)n(C)c2=O)c(F)cc1Cl [1-44]	–	–	–	–	–	–	–	–	–	–	5	5	5	5	5	5	5	5	5	5
CCOC(=O)c1cc(-c2ccc(C(F)(F)F)n(C)c2=O)c(F)cc1Cl [1-65]	–	–	–	–	–	–	–	–	5	5	5	5	5	5	5	5	5	5	5	5
Cc1cc(-c2ccc(C(F)(F)F)n(C)c2=O)c(F)cc1Cl [1-90]	–	–	–	–	–	–	–	–	5	5	5	5	5	5	5	5	5	5	5	5
COCSc1cc(-c2ccc(C(F)(F)F)n(C)c2=O)c(F)cc1Cl [1-91]	–	–	–	–	–	–	–	–	5	5	5	5	5	5	5	5	5	5	5	5
Cn1c(C(F)(F)F)ccc(-c2cc(OCC(F)(F)F)c(Cl)cc2F)c1=O [1-155]	–	–	–	–	–	–	–	–	5	5	5	5	5	5	5	5	5	5	5	5
Cn1c(C(F)(F)F)ccc(-c2cc(OCC3CC3)c(Cl)cc2F)c1=O [1-160]	–	–	–	–	–	–	–	–	–	–	5	5	5	5	5	5	5	5	5	5
Cn1c(C(F)(F)F)ccc(-c2cc(OCCCl)c(Cl)cc2F)c1=O [1-171]	–	–	–	–	–	–	5	5	–	–	5	5	5	5	5	5	–	–	5	5
C#CCOc1cc(-c2ccc(C(F)(F)F)n(N)c2=O)c(F)cc1Cl [1-178]	–	–	–	–	–	–	5	5	–	–	5	5	5	5	5	5	–	–	–	–
COc1cc(-c2ccc(C(F)(F)F)n(N)c2=O)c(F)cc1Cl [1-179]	–	–	–	–	–	–	5	5	–	–	5	5	5	5	5	5.	–	–	–	–
CCOCOc1cc(-c2ccc(C(F)(F)F)n(C)c2=O)c(F)cc1Cl [1-181]	–	–	–	–	–	–	5	5	–	–	5	5	5	5	5	5	–	–	5	5
C#CCN1C(=O)COc2cc(F)c(-c3cn(C)c(C(F)(F)F)cc3=O)cc21 [Compound 7-1]	5	5	5	5	5	5	5	5	–	–	–	–	–	–	–	–	–	–	5	–

Source: patent US6472348B1, “Pyridone derivatives and herbicides” (Kumiai Chemical Industry Co., Ltd., priority 1996, dated 2002)
